According to ChEMBL document CHEMBL4622916, “Synthesis of tetracyclic oxindoles and evaluation of their α-glucosidase inhibitory and glucose consumption-promoting activity” (Bioorg Med Chem Lett, 2020):
Active and inactive are the calls of the source. The calls are words filed in the database; no cut-off is given here.

Key:
[1] = Inhibition of alpha-glucosidase (unknown origin); set-up: species or system Homo sapiens
HepG2 [2] = assay: Increase in glucose consumption in human HepG2 cells at 1 to 5 uM; type: functional, cell-based
HepG2 [3] = assay: Cytotoxicity against human HepG2 cells; type: cell-based
Homo sapiens [4] = species on record: Homo sapiens; assay: Potency index, ratio of IC50 of acarbose to IC50 of compound for inhibition of alpha-glucosidase (unknown origin)
Homo sapiens [5] = species on record: Homo sapiens; assay: Reversible competitive inhibition of alpha-glucosidase (unknown origin) by Lineweaver-Burk plot analysis

Structure (SMILES)	IC50 [1] [µM]	further results
O=C(/C=C/c1ccc(Cl)cc1)[C@@H]1[C@@H](c2ccc(Cl)cc2)[C@@H]2CSCN2C12C(=O)Nc1ccc(Br)cc12 (stereo not given in full)	4.9	–
Cc1ccc(/C=C/C(=O)[C@@H]2[C@@H](c3ccc(C)cc3)[C@@H]3CSCN3C23C(=O)Nc2ccccc23)cc1 (stereo not given in full)	18.9	–
COC(=O)/C=C/c1ccc2c(c1)C1(C(=O)N2Cc2ccc(OC)cc2)[C@H](C(=O)/C=C/c2ccc(-c3ccccc3)cc2)[C@@H](c2ccc(-c3ccccc3)cc2)[C@@H]2CSCN21 (stereo not given in full)	4.14	–
COc1ccc(/C=C/C(=O)[C@@H]2[C@@H](c3ccc(OC)c(OC)c3)[C@@H]3CSCN3C23C(=O)Nc2ccccc23)cc1OC (stereo not given in full)	> 50	–
CN(C)c1ccc(/C=C/C(=O)[C@@H]2[C@@H](c3ccc(N(C)C)cc3)[C@@H]3CSCN3C23C(=O)Nc2ccccc23)cc1 (stereo not given in full)	4.81	–
O=C(/C=C/c1ccccc1)[C@@H]1[C@@H](c2ccccc2)[C@@H]2CSCN2C12C(=O)Nc1ccccc12 (stereo not given in full)	16.1	–
COc1ccc(CN2C(=O)C(=O)c3cc(Br)ccc32)cc1	39.9	–
C[C@H]1O[C@H](O[C@H]2[C@H](O)[C@@H](O)[C@@H](O[C@H]3[C@H](O)[C@@H](O)C(O)O[C@@H]3CO)O[C@@H]2CO)[C@H](O)[C@@H](O)[C@@H]1N[C@H]1C=C(CO)[C@@H](O)[C@H](O)[C@H]1O (stereo not given in full) [ACARBOSE]	50.3	–
CCN(CC)c1ccc(/C=C/C(=O)[C@@H]2[C@@H](c3ccc(N(CC)CC)cc3)[C@@H]3CSCN3C23C(=O)N(Cc2ccc(OC)cc2)c2ccc(/C=C/C(=O)OC)cc23)cc1 (stereo not given in full)	7.43	–
O=C(/C=C/c1ccco1)[C@@H]1[C@@H](c2ccco2)[C@@H]2CSCN2C12C(=O)Nc1ccccc12 (stereo not given in full)	> 50	–
O=C(/C=C/c1ccc(Cl)cc1)[C@@H]1[C@@H](c2ccc(Cl)cc2)[C@@H]2CSCN2C12C(=O)Nc1ccccc12 (stereo not given in full)	7.49	–
O=C(/C=C/c1ccc(Cl)cc1Cl)[C@@H]1[C@@H](c2ccc(Cl)cc2Cl)[C@@H]2CSCN2C12C(=O)Nc1ccccc12 (stereo not given in full)	7.4	–
O=C(/C=C/c1ccccc1Br)[C@@H]1[C@@H](c2ccccc2Br)[C@@H]2CSCN2C12C(=O)Nc1ccccc12 (stereo not given in full)	4.47	–
O=C(/C=C/c1ccccc1Cl)[C@@H]1[C@@H](c2ccccc2Cl)[C@@H]2CSCN2C12C(=O)Nc1ccccc12 (stereo not given in full)	9.8	–

The next lines start with results.

IC50 [1] [µM]	Structure (SMILES)	further results
3.9	COc1ccc(CN2C(=O)C3(c4cc(Br)ccc42)[C@H](C(=O)/C=C/c2ccc(Cl)cc2)[C@@H](c2ccc(Cl)cc2)[C@@H]2CSCN23)cc1 (stereo not given in full)	–
4.73	COC(=O)/C=C/c1ccc2c(c1)C1(C(=O)N2Cc2ccc(OC)cc2)[C@H](C(=O)/C=C/c2ccc(Cl)cc2)[C@@H](c2ccc(Cl)cc2)[C@@H]2CSCN21 (stereo not given in full)	–
14.1	COc1ccc(CN2C(=O)C3(c4cc(Br)ccc42)[C@H](C(=O)/C=C/c2ccc(Cl)cc2Cl)[C@@H](c2ccc(Cl)cc2Cl)[C@@H]2CSCN23)cc1 (stereo not given in full)	–
4.49	COC(=O)/C=C/c1ccc2c(c1)C1(C(=O)N2Cc2ccc(OC)cc2)[C@H](C(=O)/C=C/c2ccc(Cl)cc2Cl)[C@@H](c2ccc(Cl)cc2Cl)[C@@H]2CSCN21 (stereo not given in full)	–
8.33	COC(=O)/C=C/c1ccc2c(c1)C1(C(=O)N2Cc2ccc(OC)cc2)[C@H](C(=O)/C=C/c2ccccc2)[C@@H](c2ccccc2)[C@@H]2CSCN21 (stereo not given in full)	–
3.64	COc1ccc(CN2C(=O)C3(c4cc(Br)ccc42)[C@H](C(=O)/C=C/c2ccc(N(C)C)cc2)[C@@H](c2ccc(N(C)C)cc2)[C@@H]2CSCN23)cc1 (stereo not given in full)	Activity (HepG2 [2]): Active; Activity (HepG2 [3]): Non-Toxic; Ratio IC50 (Homo sapiens [4]): 14; inhibition (Homo sapiens [5]): Active
4.68	COC(=O)/C=C/c1ccc2c(c1)C1(C(=O)N2Cc2ccc(OC)cc2)[C@H](C(=O)/C=C/c2ccccc2Br)[C@@H](c2ccccc2Br)[C@@H]2CSCN21 (stereo not given in full)	–
9.47	COC(=O)/C=C/c1ccc2c(c1)C1(C(=O)N2Cc2ccc(OC)cc2)[C@H](C(=O)/C=C/c2ccc(N(C)C)cc2)[C@@H](c2ccc(N(C)C)cc2)[C@@H]2CSCN21 (stereo not given in full)	–
3.81	COC(=O)/C=C/c1ccc2c(c1)C1(C(=O)N2Cc2ccc(OC)cc2)[C@H](C(=O)/C=C/c2ccc(OC)cc2)[C@@H](c2ccc(OC)cc2)[C@@H]2CSCN21 (stereo not given in full)	–
4.47	COC(=O)/C=C/c1ccc2c(c1)C1(C(=O)N2Cc2ccc(OC)cc2)[C@H](C(=O)/C=C/c2ccc(F)cc2)[C@@H](c2ccc(F)cc2)[C@@H]2CSCN21 (stereo not given in full)	–
8.44	COC(=O)/C=C/c1ccc2c(c1)C1(C(=O)N2Cc2ccc(OC)cc2)[C@H](C(=O)/C=C/c2ccc(Br)cc2)[C@@H](c2ccc(Br)cc2)[C@@H]2CSCN21 (stereo not given in full)	–
4.09	COc1ccc(CN2C(=O)C3(c4cc(Br)ccc42)[C@H](C(=O)/C=C/c2ccccc2Br)[C@@H](c2ccccc2Br)[C@@H]2CSCN23)cc1 (stereo not given in full)	–
